From US20250129069A1, “TRIAZOLO WRN INHIBITORS” (Nimbus Wadjet, Inc., priority 2023, published 2025) come the findings set out here.

Assay [1] addresses human Werner helicase (WRN, amino acids 517-1235 with L1074F point mutation) (Homo sapiens (Human), UniProt Q14191, L1074F). As to the kind of experiment: WRN (BV08) ADP-Glo assay. It is filed as biochemical. As to conditions: human WRN (aa 517-1235, L1074F), read-out: ADP-Glo_hWRN_IC50. The source says:
Bovine skin gelatin (BSG), dimethyl sulfoxide (DMSO), Pluronic F-127 and tris(2-carboxyethyl)phosphine hydrochloride solution (TCEP) were purchased from Sigma-Aldrich (St. Louis, MO) at the highest level of purity possible. Bicine buffer solution was purchased from Alfa Aesar (Tewksbury, MA) and compound NSC-617145 was purchased from Tocris (Minneapolis, MN). DNA duplex was synthesized at BGI (Shenzhen, China) and was composed of strand 1 with the sequence 5′-[…]-3′ (SEQ ID NO.: 1) and strand 2 with the sequence 5′-[…]-3′ (SEQ ID NO.: 2). DNA strands were annealed by heating to 95° C. for 5 minutes followed by slow cooling to room temperature. Compounds in 100% DMSO (0.1 μl) were spotted into a 384-well white polystyrene Optiplate-384 (Perkin Elmer; Waltham, MA) assay plate using a LabCyte Echo 550 (Agilent; Santa Clara, CA). DMSO (0.1 μl) was added to columns 12, rows A-H and column 24, rows I-P for the maximum signal control. Compound NSC-617145 (0.1 μl) was added to columns 12, rows I-P and 24, rows A-H for the minimum signal control (100% inhibition). Compounds/DMSO were preincubated for 15 minutes at 25° C. with 5 μl 2×WRN (BV08), prepared as described below, in assay buffer containing 20 mM Bicine (pH=7.5), 1 mM MgCl2, 10 mM KCl, 0.1% Pluronic F-127, 0.005% BSG, 1 mM TCEP. The reaction was initiated by the addition of 5 μl 2× substrate mixture in assay buffer and incubated for 60 minutes at 25° C. The final concentrations of the assay components were 0.15 nM WRN, 5 μM ATP, and 0.1 nM DNA duplex. The final DMSO concentration was 1% and the reference compound concentration (NSC-617145) used for the minimal signal control was 20 μM. The reaction was stopped by the addition of the ADP-Glo Kit components (Promega; Madison, WI) as directed and the relative luminescence units (RLU) were read on an Envision 2104 (Perkin Elmer; Waltham, MA).
% inhibition calculation:
% INH=(RLU MAX−RLU sample)/(RLU MAX−RLU MIN))×100
Where RLU=relative luminescence units, sample=signal in sample well, and MIN and MAX are the respective minimum and maximum signal controls. Four-parameter IC50 fit equation:
Y=Bottom+(Top−Bottom)/(1+(IC50/X)^Hill Slope)
Where top and bottom are normally allowed to float but may be fixed at 100 or 0 respectively in a 3-parameter fit. Y is the % inhibition and X is the compound concentration.
Molecular Biology and virus production. The DNA encoding human Werner helicase (Uniprot Q14191, amino acids 517-1235 with L1074F point mutation) was generated with codon-optimization for E. coli expression and subcloned into the pFastBac vector with a TEV cleavable 8×His tag (WRN—BV08). The baculovirus from the expression plasmid WRN—BV08 was generated from transfection and amplification following the manufacturer's instructions.
Sf9 cells grown in SF900II media were infected with 1:200 WRN—BV08 P2 virus and incubated for protein expression for 72 h at 27° C. The WRN protein was purified using the following protocol. The cell pellets were thawed and resuspended in buffer A (50 mM Tris, pH 7.5, 500 mM NaCl, 1 mM TCEP, 10% Glycerol) supplemented with 0.5% CHAPS, 1 mM PMSF, […] Leupeptin, 1 μg/ml Pepstatin, and the Pierce Universal Nuclease and cocktail tablet. Cleared lysates were loaded onto a Ni Sepharose™ excel column and washed with buffer A and bound protein was eluted with buffer A supplemented with 300 mM imidazole. The eluted protein was dialyzed against buffer A and digested by His-tagged TEV (1:5 ratio) overnight at 4° C. ZnCl2 was added into the sample at final 15 μM before loading onto a second Ni Sepharose™ excel column. Untagged WRN protein was eluted from the column with buffer A supplemented with 20 mM imidazole, dialyzed overnight into buffer B (50 mM Tris, pH 7.5, 1 mM TCEP, 10% Glycerol) supplemented with 150 mM NaCl and loaded onto a Heparin column. Proteins were eluted with a step gradient of buffer B supplemented with 150 mM, 200 mM, 300 mM and 500 mM NaCl. […]
On the technique in general: ADP-Glo first removes unused ATP, then detects ADP through luciferase.

Assay [2] concerns p21 induction in HCT 116 cells. As to the kind of experiment: p21 induction in cells (In-Cell Western, p21/GAPDH ratio). The settings on record: 24 h compound incubation, read-out: p21_EC50. It is filed as cell-based. Summed up: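 EC50 values come from nonlinear fits of percent activation, defined by the 800/700 nm p21-to-GAPDH ratio scaled between DMSO (low) and internal WRN inhibitor (high) controls. In-Cell Western read after 24 h compound exposure of HCT 116 cells at 37° C. Duplicate 11-point series, 2-fold steps, usually starting at 10 μM.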

Each structure is given as a SMILES string. Like-named read-outs stand apart in the source and are kept apart here. Some results are limits rather than exact numbers.

Chain of human Werner helicase (WRN, amino acids 517-1235 with L1074F point mutation) (Q14191 other isoform, or with tags, fused parts or gaps L1074F (already in the parent)): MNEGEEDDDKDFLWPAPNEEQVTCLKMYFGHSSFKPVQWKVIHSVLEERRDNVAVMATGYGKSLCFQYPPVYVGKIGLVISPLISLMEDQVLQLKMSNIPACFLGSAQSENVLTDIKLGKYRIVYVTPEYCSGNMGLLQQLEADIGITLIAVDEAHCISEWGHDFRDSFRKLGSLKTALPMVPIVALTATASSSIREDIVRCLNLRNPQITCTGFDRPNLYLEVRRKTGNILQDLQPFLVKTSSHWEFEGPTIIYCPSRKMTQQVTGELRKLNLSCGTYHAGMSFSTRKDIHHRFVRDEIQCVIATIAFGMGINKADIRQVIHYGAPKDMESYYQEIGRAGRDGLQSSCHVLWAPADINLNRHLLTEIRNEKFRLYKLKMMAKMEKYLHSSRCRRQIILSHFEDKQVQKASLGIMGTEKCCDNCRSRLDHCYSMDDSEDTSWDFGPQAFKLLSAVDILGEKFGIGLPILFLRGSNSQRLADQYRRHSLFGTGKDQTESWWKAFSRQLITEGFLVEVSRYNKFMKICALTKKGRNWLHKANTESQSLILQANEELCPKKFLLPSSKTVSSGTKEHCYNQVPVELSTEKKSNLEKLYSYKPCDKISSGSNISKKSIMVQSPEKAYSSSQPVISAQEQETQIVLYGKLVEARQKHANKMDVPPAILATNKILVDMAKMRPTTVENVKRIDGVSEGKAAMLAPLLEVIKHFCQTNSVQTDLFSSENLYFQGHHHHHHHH

For `CCc1c(N2CCN(C(=O)c3cnccc3OC)[C@H]3CC[C@@H]32)c(=O)c2nn(C3=CCOCC3)nc2n1CC(=O)NC12CC(C(C)C)(C1)C2` [Compound I-203, 2-[2-(3,6-dihydro-2H-pyran-4-yl)-5-ethyl-6-[(1S,6S)-5-(4-methoxypyridine-3-carbonyl)-2,5-diazabicyclo[4.2.0]octan-2-yl]-7-oxo-2H,4H,7H-[1,2,3]triazolo[4,5-b]pyridin-4-yl]-N-[3-(propan-2-yl)bicyclo[1.1.1]pentan-1-yl]acetamide], in assay [1], the IC50 was 5 to 50 nM. Also, the EC50 in assay [2] (Homo sapiens) fell in the range of 500 to 2000 nM.

`CCc1c(N2CCN(C(=O)c3cccc4c3OCC4)[C@H]3CC[C@@H]32)c(=O)c2nn(-c3ccnc(OC)c3)nc2n1CC(=O)Nc1ccc(C(F)(F)F)cc1Cl` [Compound I-120, N-[2-chloro-4-(trifluoromethyl)phenyl]-2-{6-[(1S,6S)-5-(2,3-dihydro-1-benzofuran-7-carbonyl)-2,5-diazabicyclo[4.2.0]octan-2-yl]-5-ethyl-2-(2-methoxypyridin-4-yl)-7-oxo-2H,4H,7H-[1,2,3]triazolo[4,5-b]pyridin-4-yl}acetamide]: in assay [1], the IC50 is 5 to 50 nM. For the same molecule, in assay [2] (Homo sapiens), the EC50 fell in the range of 500 to 2000 nM.

As to `CCc1c(N2CCN(C(=O)c3ncnc(C)c3O)[C@H]3CC[C@@H]32)c(=O)c2nn(-c3ccnc(OC)c3)nc2n1CC(=O)Nc1ccc(C(F)F)cc1Cl` [Compound I-82, N-[2-chloro-4-(difluoromethyl)phenyl]-2-{5-ethyl-6-[(1S,6S)-5-(5-hydroxy-6-methylpyrimidine-4-carbonyl)-2,5-diazabicyclo[4.2.0]octan-2-yl]-2-(2-methoxypyridin-4-yl)-7-oxo-2H,4H,7H-[1,2,3]triazolo[4,5-b]pyridin-4-yl}acetamide], the IC50 in assay [1] was at most 5 nM. The EC50 in assay [2] (Homo sapiens) is at most 500 nM.

In the case of `CCc1c(N2CCN(C(=O)c3c(O)ccc4ncoc34)[C@H]3CC[C@@H]32)c(=O)c2nn(-c3ccnc(OC)c3)nc2n1CC(=O)NC12CC(C(C)C)(C1)C2` [Compound I-137, 2-{5-ethyl-6-[(1S,6S)-5-(6-hydroxy-1,3-benzoxazole-7-carbonyl)-2,5-diazabicyclo[4.2.0]octan-2-yl]-2-(2-methoxypyridin-4-yl)-7-oxo-2H,4H,7H-[1,2,3]triazolo[4,5-b]pyridin-4-yl}-N-[3-(propan-2-yl)bicyclo[1.1.1]pentan-1-yl]acetamide], the IC50 in assay [1] is at most 5 nM. Besides, the EC50 in assay [2] (Homo sapiens) is at most 500 nM.

Regarding `CCc1c(N2CCN(C(=O)c3ncnc(C)c3O)[C@H]3CC[C@@H]32)c(=O)c2nn(-c3ccnc(OC)c3)nc2n1CC(=O)NC1CC2(CC(F)C2)C1` (stereo partly drawn) [Compound I-47, 2-{5-ethyl-6-[(1S,6S)-5-(5-hydroxy-6-methylpyrimidine-4-carbonyl)-2,5-diazabicyclo[4.2.0]octan-2-yl]-2-(2-methoxypyridin-4-yl)-7-oxo-2H,4H,7H-[1,2,3]triazolo[4,5-b]pyridin-4-yl}-N-{6-fluorospiro[3.3]heptan-2-yl}acetamide], the IC50 in assay [1] fell in the range of 5 to 50 nM. Also, the EC50 in assay [2] (Homo sapiens) is 500 to 2000 nM.

On to `CCc1c(N2CCN(C(=O)c3c(OC)ncc(C)c3O)CC2)c(=O)c2nn(-c3ccnc(OC)c3)nc2n1CC(=O)NC12CC(CC(F)F)(C1)C2` [Compound I-121, N-[3-(2,2-difluoroethyl)bicyclo[1.1.1]pentan-1-yl]-2-{5-ethyl-6-[4-(4-hydroxy-2-methoxy-5-methylpyridine-3-carbonyl)piperazin-1-yl]-2-(2-methoxypyridin-4-yl)-7-oxo-2H,4H,7H-[1,2,3]triazolo[4,5-b]pyridin-4-yl}acetamide], for which the IC50 in assay [1] was 5 to 50 nM. In addition, the EC50 in assay [2] (Homo sapiens) lay within 500 to 2000 nM.

`CCc1c(N2CCN(C(=O)c3ncnc(C)c3O)[C@H]3CC[C@@H]32)c(=O)c2nn(-c3ccnc(OC)c3)nc2n1CC(=O)NC12CC(C3CCCC3)(C1)C2` [Compound I-195, N-{3-cyclopentylbicyclo[1.1.1]pentan-1-yl}-2-{5-ethyl-6-[(1S,6S)-5-(5-hydroxy-6-methylpyrimidine-4-carbonyl)-2,5-diazabicyclo[4.2.0]octan-2-yl]-2-(2-methoxypyridin-4-yl)-7-oxo-2H,4H,7H-[1,2,3]triazolo[4,5-b]pyridin-4-yl}acetamide]: in assay [1], the IC50 is at most 5 nM. The EC50 in assay [2] (Homo sapiens) is at most 500 nM.

For the molecule `CCc1c(N2CCN(C(=O)c3c(OC)ncc(C)c3O)[C@H]3CC[C@@H]32)c(=O)c2nn(-c3ccnc(OC)c3)nc2n1CC(=O)NC12CC(C(C)C)(C1)C2` [Compound I-17, 2-(5-ethyl-6-((1S,6S)-5-(4-hydroxy-2-methoxy-5-methylnicotinoyl)-2,5-diazabicyclo[4.2.0]octan-2-yl)-2-(2-methoxypyridin-4-yl)-7-oxo-2,7-dihydro-4H-[1,2,3]triazolo[4,5-b]pyridin-4-yl)-N-(3-isopropylbicyclo[1.1.1]pentan-1-yl)acetamide], the IC50 in assay [1] was in the range of 5 to 50 nM. Moreover, the EC50 in assay [2] is at most 500 nM.

For `CCc1c(N2CCN(C(=O)c3ncnc(C)c3O)[C@H]3CC[C@@H]32)c(=O)c2nn(-c3ccccn3)nc2n1CC(=O)NC12CC(C(C)C)(C1)C2` [Compound I-22, 2-(5-ethyl-6-((1S,6S)-5-(5-hydroxy-6-methylpyrimidine-4-carbonyl)-2,5-diazabicyclo[4.2.0]octan-2-yl)-7-oxo-2-(pyridin-2-yl)-2,7-dihydro-4H-[1,2,3]triazolo[4,5-b]pyridin-4-yl)-N-(3-isopropylbicyclo[1.1.1]pentan-1-yl)acetamide], in assay [1], the IC50 fell in the range of 5 to 50 nM. Moreover, the EC50 in assay [2] (Homo sapiens) is at most 500 nM.

Take `CCc1c(N2CCN(C(=O)c3c(OC)ncc(C)c3O)CC2)c(=O)c2nn(C3=CCOCC3)nc2n1CC(=O)NC12CC(C3CC3)(C1)C2` [Compound I-97, N-{3-cyclopropylbicyclo[1.1.1]pentan-1-yl}-2-[2-(3,6-dihydro-2H-pyran-4-yl)-5-ethyl-6-[4-(4-hydroxy-2-methoxy-5-methylpyridine-3-carbonyl)piperazin-1-yl]-7-oxo-2H,4H,7H-[1,2,3]triazolo[4,5-b]pyridin-4-yl]acetamide]: the IC50 in assay [1] fell in the range of 5 to 50 nM. Further, the EC50 in assay [2] (Homo sapiens) was at most 500 nM.

Turning to `CCc1c(N2CCN(C(=O)c3ncnc(C)c3O)CC2)c(=O)c2nn(-c3ccccn3)nc2n1CC(=O)Nc1ccc(C(F)(F)F)cc1Cl` [Compound I-127, N-[2-chloro-4-(trifluoromethyl)phenyl]-2-{5-ethyl-6-[4-(5-hydroxy-6-methylpyrimidine-4-carbonyl)piperazin-1-yl]-7-oxo-2-(pyridin-2-yl)-2H,4H,7H-[1,2,3]triazolo[4,5-b]pyridin-4-yl}acetamide], the IC50 in assay [1] was at most 5 nM. Also, in assay [2] (Homo sapiens), the EC50 is at most 500 nM.
